Entries after “also recorded” stand apart in the source; their conditions may differ. Like-named read-outs stand apart in the source and are kept apart here.

Holding throughout (type): biochemical
The target of assay [1] is T1, G9 polypeptide (Homo sapiens, UniProt Q7Z7M8).
T1 construct: made in house
T1 sequence (Q7Z7M8 26-397): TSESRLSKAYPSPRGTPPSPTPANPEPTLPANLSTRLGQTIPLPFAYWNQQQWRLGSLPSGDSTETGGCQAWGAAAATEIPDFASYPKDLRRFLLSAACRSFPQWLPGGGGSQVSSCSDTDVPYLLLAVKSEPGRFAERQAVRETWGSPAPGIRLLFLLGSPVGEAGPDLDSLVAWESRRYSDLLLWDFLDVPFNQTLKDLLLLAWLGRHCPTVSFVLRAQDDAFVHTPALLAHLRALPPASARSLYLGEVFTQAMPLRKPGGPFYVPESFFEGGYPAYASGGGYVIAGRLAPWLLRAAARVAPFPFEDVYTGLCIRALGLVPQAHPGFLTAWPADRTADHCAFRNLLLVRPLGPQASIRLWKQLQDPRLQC
As to the kind of experiment: Divalent metal ion requirement of G9 enzyme activity.

Assay [2] addresses T1, G9 polypeptide. Kind of assay: β1,3-N-acetylglucosaminyltransferase activity with synthetic mono-/oligosaccharide acceptor substrates ([14C]UDP-GlcNAc donor, scintillation counting). The note with it: for transferring activity for acceptor substrate (in words): GlcNAc transfer by G9 to synthetic acceptor substrates; for Relative activity: Substrate specificity of G9, 10 μM acceptor substrate, UDP-GlcNAc donor, 37° C., usually 16 hours, ND = not detected. Here is the method:
The FLAG peptide-fused G9 polypeptide obtained in the example above was measured for a β1,3-N-acetylglucosaminyltransferase activity with monosaccharaide/oligosaccharide/glycolipid/glycoprotein as substrates according to known methods (e.g., the above-described references and FEBS, 462, 289 (1999), J. Biol. Chem. 269, 14730-14737 (1994), J. Biol. Chem., 267, 23507 (1992), and J. Biol. Chem., 267, 2994 (1992)).
pNp-α-Glc, pNp-β-Glc, pNp-α-GlcNAc, pNp-β-GlcNAc, pNp-α-Gal, oNp-β-Gal, pNp-α-GalNAc, pNp-α-Xyl, oNp-β-Xyl, pNp-α-Fuc, Bz-α-Man, Bz-α-ManNAc, core1-α-pNp, core3-α-pNp, Bz-β-lactoside, GlcNAcβ1-4GlcNAcβ-Bz, and Galβ1-4GlcNAcα-pNp were used as acceptor substrates (see Table 5). These substrates can be purchased from, for example, Sigma Corp. or Toronto Research Chemicals Inc.
A basic reaction solution in the case of using a radiolabeled substrate as the donor substrate comprises 20 μl in total of 14 mM HEPES buffer (pH 7.4), 10 mM MnCl2, 0.15% Triton CF-54, 0.75 mM ATP, 50 μM UDP-GlcNAc (manufactured by Sigma), 4.5 μM (50 nCi) [^14C]UDP-GlcNAc (manufactured by Amersham Biosciences), 10 μM substrate (each of the above-described acceptor substrates), and an appropriate amount (5 to 10 μl) of the purified enzyme protein (enzyme source obtained in Example 4). Enzyme reaction was carried out at 37° C. for several hours up to 16 hours (usually for 16 hours).
After the completion of reaction, the resulting solution was supplemented with 200 μl of 0.1M KCl and lightly centrifuged, and then a supernatant was obtained. After being washed once with 10 ml of methanol, the supernatant was loaded onto Sep-Pak C18 Cartridge (Waters) equilibrated by two-time washing with 10 ml of 0.1 M KCl, and the substrate and a product in the supernatant were adsorbed in the cartridge. After the cartridge was washed twice with 1 ml of pure water for HPLC, the adsorbed substrate and product were eluted with 1 ml of methanol. Following the mixing with a liquid scintillator (ACSII; manufactured by Amersham Biosciences), the amount of radiation from the product was measured with a scintillation counter.

The target in assay [3] is T1, G9 polypeptide. As to the kind of experiment: Activity measurement with glycoproteins as acceptor substrates (SDS-PAGE, autoradiography, glycopeptidase F digestion). The note with it: 40 μg acceptor glycoprotein, 37° C., FIG. 4. How it is done:
Enzyme reaction was carried out with glycoproteins as substrates. A reaction solution comprised 20 μl in total of 14 mM HEPES buffer (pH 7.4), 10 mM MnCl2, 0.15% Triton CF-54, 0.75 mM ATP, 50 μM UDP-GlcNAc (manufactured by Sigma), 4.5 μM (50 nCi) [^14C]UDP-GlcNAc (manufactured by Amersham Biosciences), 40 μg of an acceptor substrate, and an appropriate amount (5 to 10 μl) of a purified enzyme protein. A αl-acid glycoprotein (orosomucoid; manufactured by Sigma), ovalbumin (manufactured by Sigma), or ovomucoid (manufactured by Sigma) was used as the above described acceptor substrate. The enzyme purified with the anti-FLAG M1 antibody affinity gel in Example 4 was used as the above-described purified enzyme protein.
Reaction was carried out at 37° C. for several hours up to 16 hours. A portion of a reaction product was subjected to enzyme digestion with glycopeptidase F (GPF; manufactured by TAKARA) according to the instruction. The samples both before and after enzyme digestion were analyzed by 10% SDS-PAGE (see FIG. 4).

The target of assay [4] is T1, G9 polypeptide. As to the kind of experiment: Buffer and pH dependence of G9 enzyme activity. How it is done: Buffer conditions were investigated using the same reaction solution and reaction time as above but using HEPES (pH 6.75 to 7.4) and sodium cacodylate (pH 6.4 to 7.2) instead of 14 mM HEPES buffer (pH7.4) (see FIG. 2A).
[5] abbreviates: metal ions at 2.5, 10 and 40 mM instead of 10 mM MnCl2, FIG. 2B.

Turning to `[Cl][Cd][Cl]` [Cd, CdCl2], the “effect of divalent metal ion on G9 activity (in words)” value (“effect of divalent metal ion” for short) in assay [1] (setting [5]) is listed as “slight enhancing effect”. In the case of `[Cl-].[Cl-].[Co+2]` [Co ion, CoCl2], in assay [1], the “effect of divalent metal ion” value is on record as “significantly enhanced”. Turning to `CC(=O)N[C@H]1[C@@H](Oc2ccc([N+](=O)[O-])cc2)O[C@H](CO)[C@@H](O[C@@H]2O[C@H](CO)[C@H](O)[C@H](O)[C@H]2O)[C@@H]1O` [Galβ1-4GlcNAcα-pNP], in assay [2], the “transferring activity for acceptor substrate (in words)” value is on record as “particularly strong activity; also recorded: highest transferring activity” and the Relative activity came out at 100%. Regarding `OC[C@H]1O[C@@H](O[C@H]2[C@H](O)[C@@H](O)[C@H](OCc3ccccc3)O[C@@H]2CO)[C@H](O)[C@@H](O)[C@H]1O` [Lactoside β-Bz], the “transferring activity for acceptor substrate (in words)” value in assay [2] (listed as Bz-β-lactoside) is on record as “significant activity; also recorded: a certain amount of transferring activity”. For the same molecule, the Relative activity in assay [2] was 27%. With `[Cl-].[Cl-].[Mg+2]` [Mg, MgCl2], in assay [1] (setting [5]), the “effect of divalent metal ion” value is “no enhancing effect is substantially observed”. Take `[Cl][Mn][Cl]` [Mn ion, MnCl2]: the “effect of divalent metal ion” value in assay [1] (setting [5]) was “particularly remarkably enhanced”. With `[Cl][Ni][Cl]` [Ni, NiCl2], the “effect of divalent metal ion” value in assay [1] (setting [5]) is recorded as “slight enhancing effect”. The same measure, in the same setting: the result for `[Cl-].[Cl-].[Zn+2]` [Zn, ZnCl2] reads “no enhancing effect is substantially observed”.

B1: ovalbumin (protein, UniProt P01012 2-386, looked up)
Ovalbumin: GSIGAASMEFCFDVFKELKVHHANENIFYCPIAIMSALAMVYLGAKDSTRTQINKVVRFDKLPGFGDSIEAQCGTSVNVHSSLRDILNQITKPNDVYSFSLASRLYAEERYPILPEYLQCVKELYRGGLEPINFQTAADQARELINSWVESQTNGIIRNVLQPSSVDSQTAMVLVNAIVFKGLWEKAFKDEDTQAMPFRVTEQESKPVQMMYQIGLFRVASMASEKMKILELPFASGTMSMLVLLPDEVSGLEQLESIINFEKLTEWTSSNVMEERKIKVYLPRMKMEEKYNLTSVLMAMGITDVFSSSANLSGISSAESLKISQAVHAAHAEINEAGREVVGSAEAGVDAASVSEEFRADHPFLFCIKHIATNAVLFFGRCVSP
notes: glycoprotein acceptor substrate manufactured by Sigma
For the molecule B1, the “GlcNAc-transferring activity for glycoprotein acceptor substrate (in words)” value in assay [3] was “relatively weak activity”.

B2: G9 polypeptide: novel human β1,3-N-acetyl-D-glucosaminyltransferase, FLAG peptide-fused, amino acids 26 to 397 of SEQ ID NO: 2 (SEQ ID NO: 16) (protein, listed as Homo sapiens)
chain: TSESRLSKAYPSPRGTPPSPTPANPEPTLPANLSTRLGQTIPLPFAYWNQQQWRLGSLPSGDSTETGGCQAWGAAAATEIPDFASYPKDLRRFLLSAACRSFPQWLPGGGGSQVSSCSDTDVPYLLLAVKSEPGRFAERQAVRETWGSPAPGIRLLFLLGSPVGEAGPDLDSLVAWESRRYSDLLLWDFLDVPFNQTLKDLLLLAWLGRHCPTVSFVLRAQDDAFVHTPALLAHLRALPPASARSLYLGEVFTQAMPLRKPGGPFYVPESFFEGGYPAYASGGGYVIAGRLAPWLLRAAARVAPFPFEDVYTGLCIRALGLVPQAHPGFLTAWPADRTADHCAFRNLLLVRPLGPQASIRLWKQLQDPRLQC
modifications: FLAG peptide
On to B2, for which the “pH of maximum activity” value in assay [4] (HEPES buffer (pH 6.75 to 7.4), FIG. 2A) was about 7.0. Further, the “pH dependence of activity (in words)” value in assay [4] (sodium cacodylate buffer, pH 6.4 to 7.2, FIG. 2A) is “rises with an increase in pH”.

The record behind these values is patent publication US7396666B2, “Glycosyltransferase, nucleic acid encoding the glycosyltransferase and method of testing canceration using the nucleic acid” (National Institute of Advanced Industrial Science and …, priority 2002, dated 2008).
